We go through 1 compound from patent publication US20080271210A1, “Oryza Sativa Lectin-Like Receptor Kinase 1 (Oslrk1), a Gene Involved in Plant Development” (Temasek Life Sciences Laboratory National University of …, priority 2004, published 2008).

What all share (assay type): in vivo, Oryza sativa
One test relates to Oslrk2. The experiment in a line: RT-PCR of Oslrks in treated 2 week-old seedlings. Particulars: treated vs control. How it is done: (§1) RT-PCRs were carried out on RNA samples isolated from 2 week-old seedlings treated with various sugar (FIG. 13), hormone (FIG. 14), and abiotic stresses (FIG. 15) using primers designated to either 3′ or 5′ Untranslated Regions (UTRs) of the 15 Oslrks found in Table 2. For each Oslrk two lanes in the gel are found, the first lane is the control and the second one treatment samples.
(§2) Table 3 provides a summary of all the above referenced data on the Oslrks, showing the RT-PCR results of various treatments, including sugar, hormone and abiotic stress and northern blot results on various tissues of rice plant grown in normal conditions, and the ESTs, or cDNAs availability in the database. In the table, “I” represents induced expression and “R” represents repressed expression.

In another test the test system is Oslrk1. The experiment in a line: RT-PCR of Oslrks in treated 2 week-old seedlings. The note with it: treated vs control. How it is done:
as §1, §2

A further test has as its system Oslrk4. Description: RT-PCR of Oslrks in treated 2 week-old seedlings. Particulars: treated vs control. The protocol:
as §1, §2

In a further test the test system is Oslrk14. Description: RT-PCR of Oslrks in treated 2 week-old seedlings. Particulars: treated vs control. The protocol:
as §1, §2

The next test has as its system Oslrk11. Description: RT-PCR of Oslrks in treated 2 week-old seedlings. Particulars: Sh, treated vs control. How it is done:
as §1, §2

In the next test the test system is Oslrk8. The experiment in a line: RT-PCR of Oslrks in treated 2 week-old seedlings. Particulars: Sh, treated vs control. How it is done:
as §1, §2

Another test concerns Oslrk6. The experiment in a line: RT-PCR of Oslrks in treated 2 week-old seedlings. Particulars: treated vs control. How it is done: as §1, §2
The test system of a further test is Oslrk5. Description: RT-PCR of Oslrks in treated 2 week-old seedlings. The note with it: treated vs control. The protocol: as §1, §2
The subject of another test is Oslrk12. The experiment in a line: RT-PCR of Oslrks in treated 2 week-old seedlings. The note with it: treated vs control. How it is done: as §1, §2
The next test deals with Oslrk10. Description: RT-PCR of Oslrks in treated 2 week-old seedlings. Particulars: Rt, treated vs control. The protocol:
as §1, §2

The subject of a further test is Oslrk1 gene. Description: Northern-blot of Oslrk1 transcript in WT seedlings treated with hormones and SA. The note with it: 100 uM, 24 hours, WT seedlings. From the text: Differential Regulation of Oslrk1 Gene Expression by Hormones. Receptor-like kinases were postulated to be involved in signal transduction events as they perceive a signal via a ligand-binding extracellular domain and transmit it through the serine/threonine kinase domain into the cytosol (Shiu and Bleecker, 2001). In order to know possible factors influencing the Oslrk1 gene regulation, we analyzed promoter of the Oslrk1 (1.5 kb) for the presence of cis-acting elements using the program PlantCARE (Lescot et al., 2002). Three TGAGC motifs observed in MeJA inducible genes were found in promoter of the Oslrk1 at the positions −186, −657 and −1190. Apart from these, three GA3 inducible motifs (P-box-CCTTxt) −101, −206 and −740 bp upstream of the Oslrk1 ORF were located. In addition, five salicylic acid inducible motifs (TCA-elementcAGAAa/ga) at the positions of −321, −601, −604, −855 and −1135 were detected. The presence of MeJA, GA and SA responsive cis-elements in the Oslrk1 promoter indicated possible regulatory roles of these factors. The promoter analysis led us to study the effect of different hormones and compounds on the Oslrk1 transcription. The WT seeds were germinated for […] then seedlings were transferred to the medium containing one of the following chemicals: […], MeJA, GA3 or ABA at concentration 100 uM and SA (5 mM) for 24 hours (Materials and Methods). The total RNA isolated from the untreated and treated seedlings were used in Northern-blot hybridization using 3′ UTR of the Oslrk1 gene as a probe. The treatment with GA3 and SA repressed the Oslrk1 gene expression (FIG. 8A) by 2.5 and 3.3 times respectively. […] In order to confirm the level of induction of the Oslrk1 gene by MeJA over time, in another series of experiments, a time course was performed after hormone treatment. Seven day old seedlings were sprayed with 100 uM of MeJA solution and they were harvested in 1, 2, 4, 6, 8, and 12 hours.
RNA Isolation and Northern-blot Analysis. RNA was isolated from different organs of rice plant at different developmental stages (roots of 10-14 days old seedlings and 2 months old plants, 10-14 days old seedlings, young and mature leaves, panicles at the flowering stage and calli) using a RNeasy Plant mini kit (Qiagen,). The RNA (10 ug) was fractionated on a 1.2% denaturating formaldehyde agarose gel and transferred onto a Hybond-N^+ membrane (Amersham). The bolts were hybridized with dogoxigenin (DIG)-labeled probes in DIG Easy Hyb solution (Roche) at 50° C. After hybridization, membranes were washed twice with 2×SSC and 0.1% SDS for 15 min, then twice with 0.5×SSC and 0.1% SDS for 15 min at 68° C. Detection was carried out according to manufacturer using DIG Wash and Block Buffer set and chemiluminescent substrate CDP Star™ (Roche). DIG-labelled probe corresponded to 3′UTR and lectin domain of Oslrk1 was used. For the control of RNA quantity, DIG-probe corresponding to rice Actin1 gene was synthesized using the following primers: […]
The RT-PCRs and Northern blots were repeated at least thrice and similar results were obtained. The quantification of the intensity of the hybridization signals was performed using Quantity ONE 4.5.0 software in Gel doc XR documentation system (Bio-Rad Laboratories, Inc., USA). The level of actual expression was calculated as a ratio of intensity of specific signal (Oslrk1 3′UTR probe) to the intensity of signal of positive control (rice Act1).
Treatment of WT Seedlings with Hormones and Sugars. Two week old WT seedlings were transferred to MS medium containing 100 μM of different hormones, such as Indole 3-Acetic Acid (IAA), Abscisic acid (ABA), Methyl Jasmonate (MeJA), or Gibbrellic Acid (GA3) and 5 mM of Salicylic Acid (SA), and were grown for 24 hours under normal day/light conditions. Total RNA was extracted from root of the seedlings and whole seedlings. […]

Regarding `CC1=CC(=O)CC(C)(C)[C@@]1(O)/C=C/C(C)=C\C(=O)O` [ABA, Abscisic acid], the “Oslrk2 expression by RT-PCR, Rt” value in the test on Oslrk2 (Rt) is given as “I”. Moreover, the “Oslrk2 expression by RT-PCR, Sh” value in the test on Oslrk2 (Sh) was “I”. For the same compound, the “Oslrk1 expression by RT-PCR, Sh” value with Oslrk1 is listed as “R”. In the test on Oslrk4 (Rt), the “Oslrk4 expression by RT-PCR, Rt” value is given as “I”. Also, in the test on Oslrk4 (Sh), the “Oslrk4 expression by RT-PCR, Sh” value is “I”. Further, the “Oslrk14 expression by RT-PCR, Sh” value with Oslrk14 is reported as “I”. In the test on Oslrk11, the “Oslrk11 expression by RT-PCR, Sh” value was “I”. Moreover, in the test with Oslrk8, the “Oslrk8 expression by RT-PCR, Sh” value is listed as “I”. Further, in the test on Oslrk6, the “Oslrk6 expression by RT-PCR, Sh” value is on record as “R”. Further, the “Oslrk5 expression by RT-PCR, Rt” value in the test with Oslrk5 (Rt) is “I”. For the same compound, the “Oslrk5 expression by RT-PCR, Sh” value with Oslrk5 (Sh) was “I”. In addition, in the test with Oslrk12, the “Oslrk12 expression by RT-PCR, Sh” value is “I”. The “Oslrk10 expression by RT-PCR, Rt” value in the test on Oslrk10 is recorded as “R”. The “effect on Oslrk1 transcription” value in the test on Oslrk1 gene is reported as “no significant effect”.
